Measured values published in US7659104B2, “Solvent tolerant microorganisms and methods of isolation” (E.I. du Pont de Nemours and Company, priority 2006, dated 2010).

Experiments:
[1] = test system: isolates listed in Table 5 (PN0048, PN0197-10, PN0133); assay: Growth on solid medium (S20 agar replica plating), isolates listed in Table 5; type: cell-based, Enterococcus; details: 37° C., 24 to 72 h
Protocol: Phylogenetic characterization of the microbial consortium in the anaerobic bioreactor and isolation of pure strains of 1-butanol resistant bacteria from this bioreactor were performed as follows. Samples of cells taken from the bioreactor at various times and from the bioreactor waste jug were serially diluted, and the serial dilutions were plated on S20 agar medium (S20 medium with 1.6% DifCo™ Agar, Noble-Solidifying agent) without 1-butanol. Colonies were then inoculated from the S20 agar medium into 1.2 mL of S20 medium without 1-butanol in the wells of a square-well microtiter plate (Beckman Coulter Inc, Fullerton, Calif.; Catalog No. 069681). […] Butanol tolerance was determined by growth in the presence of 1-butanol as determined by measuring increases in optical density at 595 nm (OD595) on a microtiter plate reader (HTS 7000 Plus Bio Assay Reader, PerkinElmer Life and Analytical Sciences Inc., Wellesley, Mass.). Isolates that had OD595 readings in the range of 0.1 to 0.8 after growth for 48 h at 37° C. with shaking were selected for further tolerance testing. […] The IC50 values of the isolated strains were determined at 37° C., for 1-butanol, 2-butanol, isobutanol, 2-butanone (also called methyl ethyl ketone (MEK)) and ethanol, following the method described in Example 1.

[2] = test system: isolates from the enrichments; details: 37° C., microtiter plate
Protocol: (§1) Pure strains of 1-butanol resistant bacteria were isolated from the enrichment cultures as follows. The cells grown in an enrichment culture containing 1.2% or 1.6% 1-butanol were serially diluted, and the serial dilutions were plated on Luria Bertani (LB) agar medium, modified LB agar (i.e., LB agar supplemented with 0.5% sucrose, 0.5% glucose, 0.5% fructose, 0.5% sodium pyruvate, 2 mM MgCl2, 0.7 mM CaCl2, 50 μM MnCl2, 1 μM FeCl3, 1 μM ZnCl2, 1.72 μM CuCl2, 2.53 μM CoCl2, 2.42 μM Na2MoO4 and 2 μM thiamine hydrochloride) or minimal enrichment medium with 2.0% Difco™ Agar Noble, (BD Diagnostic Systems, Sparks, Md.), all without 1-butanol. Colonies were then inoculated from the agar medium into minimal enrichment medium (described above) without 1-butanol in the wells of a microtiter plate. […] The growth was monitored (by OD600) of isolates cultured in S30L medium (i.e., 10 mM ammonium sulfate, 5 mM potassium phosphate buffer, pH 7.0, 50 mM MOPS, pH 7.0, 2 mM MgCl2, 0.7 mM CaCl2, 50 μM MnCl2, 1 μM FeCl3, 1 μM ZnCl2, 1.72 μM CuCl2, 2.53 μM CoCl2, 2.42 μM Na2MoO4, 2 μM thiamine hydrochloride, 0.01 M glucose, and 0.2% yeast extract) at 37° C. in the absence (control) and in the presence of from 1.2% to 3.0% w/v of 1-butanol and the doubling time for each culture was calculated from the logarithmic part of the growth curve (doubling time=0.693/growth rate).

[3] = test system: PN0110 (Enterococcus faecium); details: 37° C.
Protocol: as §1

[4] = test system: enrichment cultures from environmental sludge samples; details: 37° C.
Protocol: Environmental sludge samples were obtained from wastewater treatment facilities at several E.I. du Pont de Nemours and Company sites. Enrichment cultures were established for each sample by inoculating a 125-mL screw cap Erlenmeyer flask with 1 mL of a sludge sample in 10 mL of minimal enrichment medium (i.e., 10 mM ammonium sulfate, 50 mM potassium phosphate buffer, pH 7.0, 2 mM MgCl2, 0.7 mM CaCl2, 50 μM MnCl2, 1 μM FeCl3, 1 μM ZnCl2, 1.72 μM CuCl2, 2.53 μM CoCl2, 2.42 μM Na2MoO4, 2 μM thiamine hydrochloride, 0.5% glucose, 0.5% fructose, 0.5% sucrose and 0.1% yeast extract). The enrichment cultures were incubated at 37° C. with shaking. After 24 h of incubation, the enrichment cultures were diluted 1:10 into fresh medium that contained 0.8%, 1.2% or 1.6% w/v 1-butanol (Sigma Chemical Co.; molecular biology grade (greater than or equal to 99% purity)). Incubation continued under the same conditions. Cultures with the highest level of 1-butanol allowing significant growth (e.g., a culture with an initial OD600 of approximately 0.1 that increased within 24 to 48 h to an OD600 of approximately 1.0) were then diluted 1:10 into fresh medium that contained higher levels of 1-butanol to select for increased tolerance to 1-butanol.

[5] = test system: Lactobacillus paracasei overexpressing GroESL; details: Desmond et al.; equals 0.4% w/v; cited from earlier work
[6] = test system: Lactococcus lactis overexpressing GroESL; details: Desmond et al.; equals 0.4% w/v; cited from earlier work
[7] = test system: most microorganisms described in the art; details: liquid medium; 37° C.; cited from earlier work
[8] = liquid minimal enrichment medium, shaking

## CCCCO [1-butanol]
[1]
  concentration on solid medium at which isolates displayed growth: ≥ 2.5%
[2]
  concentration in liquid medium at which several isolates displayed growth: at least 2.0%
[3]
  concentration in solid medium on which the strain was able to grow: 2.5 % w/v
[4]; liquid medium
  concentration in whose presence none of the enrichment cultures grew: 2.0%
[4]; [8]
  concentration in whose presence enrichment cultures from some sites grew: 1.6%
  concentration in whose presence most of the enrichment cultures grew: 1.2%
[5]
  concentration in whose presence strains were able to grow: 0.5 % volume/volume (v/v)
[6]
  concentration in whose presence strains were able to grow: 0.5 % volume/volume (v/v)
[7]
  concentration at which growth is totally inhibited: less than 2.0 % w/v
